Assay results: patent publication US5132111A (priority 1990, dated 1992)
Non-standard residues stand in square brackets, D forms with d. Residues, ends and D or L forms follow the SMILES beside them. hArg = N=C(N)NCCCC[C@H](N)C(=O)O; Nle = CCCC[C@H](N)C(=O)O

The compounds below were run on cultured rat pituitary cells.
Type: cell-based

Compound | secretion of ACTH | secretion of β-endorphin (β-END-LI)
CCCC[C@H](NC(=O)[C@H](CCC(=O)O)NC(=O)[C@H](CC(C)C)NC(=O)[C@H](CCCC)NC(=O)[C@H](CCC(=O)O)NC(=O)[C@H](CCCNC(=N)N)NC(=O)[C@H](CC(C)C)NC(=O)[C@H](CC(C)C)NC(=O)[C@H](Cc1c[nH]cn1)NC(=O)[C@H](Cc1ccccc1)NC(=O)[C@@H](NC(=O)[C@H](CC(C)C)NC(=O)[C@H](CC(=O)O)NC(=O)[C@H](CC(C)C)NC(=O)[C@H](CO)NC(=O)[C@@H](NC(=O)[C@@H]1CCCN1)[C@@H](C)CC)[C@@H](C)O)C(=O)N[C@@H](C)C(=O)N[C@@H](CCCNC(=N)N)C(=O)N[C@@H](C)C(=O)N[C@@H](CCC(=O)O)C(=O)N[C@@H](CCC(N)=O)C(=O)N[C@@H](CCC(=O)O)C(=O)N[C@@H](C)C(=O)N[C@@H](CCC(=O)O)C(=O)N[C@@H](CCC(N)=O)C(=O)N[C@@H](C)C(=O)N[C@@H](C)C(=O)N[C@@H](CC(C)C)C(=O)N[C@@H](CC(N)=O)C(=O)N[C@@H](CCCNC(=N)N)C(=O)N[C@@H](CC(C)C)C(=O)N[C@@H](CC(C)C)C(=O)N[C@@H](CC(C)C)C(=O)N[C@@H](CCC(=O)O)C(=O)N[C@@H](CCC(=O)O)C(=O)N[C@@H](C)C(N)=O [[Nle^18,21, ]-AAHC(5-41)] (H-PISLDLTFHLLRE[Nle]LE[Nle]ARAEQEAEQAALNRLLLEEA-NH2) | stimulates | stimulates
H-GEEPPISLDLTFHLLREVLEMARAEQLAQQAHLNRRLMEEI-NH2 [[Gly^1, Leu^33, Glu^40]-rCRF] | stimulates | stimulates
H-PPISLDLTFHLLREVLEMARAEQLAEQAHSNRRYMEEI-NH2 | stimulates | stimulates
H-PPISLDLTFHLLREVLEMARAEQLAQQAHLNRRLMEEI-NH2 | stimulates | stimulates
H-SEEPPISLDLTFHLLREVLEMTRAEQLAEQAHSNRRLMEEI-NH2 [[Thr^22, Glu^29,40, Arg^36]-rCRF] | stimulates | stimulates
H-SEEPPISLDLTFHLLREVLE[Nle]ARAEQLAEQAHSNRRL[Nle]EII-NH2 [[Nle^21,38, Glu^29, Arg^36]-rCRF] | stimulates | stimulates
H-SEEPPISLDLTFHLLREVLE[Nle]ARAEQLAQQAYLNRRL[Nle]EEI-NH2 | stimulates | stimulates
H-SEEPPISLDLTFHLLREVLE[Nle]A[hArg]AEQLAQQAHLNRRLMEE[Nle]-NH2 | stimulates | stimulates
H-SEEPPISLDLTLELLREMLEME[hArg]AEREAEQAALNRLLLEEA-NH2 | stimulates | stimulates
H-SEEPPISLELTFHLLREVLE[Nle]ARAEQLAEQAHLNRRL[Nle]EII-NH2 | stimulates | stimulates
H-SEEPPIS[Nle]DLSFHLLREVLEMARAEQLAQQAHLNRRLMEEI-NH2 | stimulates | stimulates
H-SQEPPISLDLTFALLREMLEMARAEQEAEQAALNRLLLEEA-NH2 [[Ala13]-AAHC] | stimulates | stimulates
H-SQEPPISLDLTFHLLREMLEMARAEQEAEQAALNRLLLEEA-NH2 [AAHC] | biologically potent to stimulate the secretion | biologically potent to stimulate the secretion
H-SQEPPISLDLTFHLLREVLEMARAEQLAEQAHSNRRLLEII-NH2 [[Gln^2, Glu^29, Leu^38]-rCRF] | stimulates | stimulates
H-SQEPPISLDLTFHLLREVLEMTRADQLAQQAHSNRRLLDIA-NH2 [[Arg^23,36]-oCRF] | stimulates | stimulates
H-SQEPPISLDLTFHLLREVLE[Nle]TRADQLAQQAHSNRRLLDIA-NH2 [[Nle^21, Arg^23,36]-oCRF] | stimulates | stimulates
H-SQEPPISLDLTFHLLRE[Nle]LE[Nle]ARAEQEAEQAALNRLLLEEA-NH2 [[Nle^18, 21]-AAHC] | stimulates | stimulates
H-SQEPPISLDLTFHLLRE[Nle]LE[Nle]TRADQLRQQAHSNRRLLDIA-NH2 [[Nle^18,21,Arg^23,28,36]-oCRF] | stimulates | stimulates
H-SQEPPISLELTFHLLRE[Nle]LE[Nle]ARAEQEAEQAALNRLLLEEA-NH2 [[Glu^9, Nle^18, 21]-AAHC] | stimulates | stimulates
H-SQE[dP]PISLDLTFHLLRE[Nle]LE[Nle]ARAEQEAEQAALNRLLLEEA-NH2 [[D-Pro^4, Nle^18,21]-AAHC] | stimulates | stimulates
H-SQ[dY][dP]PISLDLTFHLLRE[Nle]LE[Nle]ARAEQEAEQAALNRLLLEEA-NH2 [[D-Tyr^3, D-Pro^4, Nle^18, 21]-AAHC] | stimulates | stimulates
H-Ser-Gln-Glu-Pro-Pro-Ile-Ser-Leu-Asp-CML-Thr-Leu-Glu-Leu -Leu-Arg-Glu-Met-Leu-Glu-Met-Ala-Arg-Ala-Glu-Gln-Glu-Ala -Glu-Gln-Ala-Ala-Leu-Asn-Arg-Leu-Tyr-Leu-Glu-Glu-Ala-NH2 [[Leu^12, Glu^13, Tyr^37]-AAHC] | stimulates | stimulates
H-VSEPPISLDLTFHLLREVLEMARAEQLAQQAHSNRRLMEEI-NH2 [[Val^1, Ser^2, Arg^36, Glu^40]-rCRF] | stimulates | stimulates

The compounds below were run on secretion of ACTH and β-END-LI.

Compound | secretion of ACTH (inhibition) | secretion of β-END-LI (inhibition)
CCCC[C@H](N)C(=O)N[C@@H](CC(=O)O)C(=O)N[C@@H](CC(C)C)C(=O)N[C@@H](CO)C(=O)N[C@@H](Cc1ccccc1)C(=O)N[C@@H](Cc1c[nH]cn1)C(=O)N[C@@H](CC(C)C)C(=O)N[C@@H](CC(C)C)C(=O)N[C@@H](CCCNC(=N)N)C(=O)N[C@@H](CCC(=O)O)C(=O)N[C@H](C(=O)N[C@@H](CC(C)C)C(=O)N[C@@H](CCC(=O)O)C(=O)N[C@@H](CCSC)C(=O)N[C@@H](C)C(=O)N[C@@H](CCCNC(=N)N)C(=O)N[C@@H](C)C(=O)N[C@@H](CCC(=O)O)C(=O)N[C@@H](CCC(N)=O)C(=O)N[C@@H](CC(C)C)C(=O)N[C@@H](C)C(=O)N[C@@H](CCC(N)=O)C(=O)N[C@@H](CCC(N)=O)C(=O)N[C@@H](C)C(=O)N[C@@H](Cc1c[nH]cn1)C(=O)N[C@@H](CC(C)C)C(=O)N[C@@H](CC(N)=O)C(=O)N[C@@H](CCCNC(=N)N)C(=O)N[C@@H](CCCNC(=N)N)C(=O)N[C@@H](CC(C)C)C(=O)N[C@@H](CCSC)C(=O)N[C@@H](CCC(=O)O)C(=O)N[C@H](C(=O)N[C@H](C(N)=O)[C@@H](C)CC)[C@@H](C)CC)C(C)C (H-[Nle]DLSFHLLREVLEMARAEQLAQQAHLNRRLMEII-NH2) | inhibits | inhibits
CCCC[C@H](NC(=O)[C@H](CCC(=O)O)NC(=O)[C@H](CC(C)C)NC(=O)[C@H](CCCC)NC(=O)[C@H](CCC(=O)O)NC(=O)[C@H](CCCNC(=N)N)NC(=O)[C@H](CC(C)C)NC(=O)[C@H](CC(C)C)NC(=O)[C@H](CCC(=O)O)NC(=O)[C@H](Cc1ccccc1)NC(=O)[C@@H](NC(=O)[C@H](CC(C)C)NC(=O)[C@@H](N)CC(=O)O)[C@@H](C)O)C(=O)N[C@@H](C)C(=O)N[C@@H](CCCNC(=N)N)C(=O)N[C@@H](C)C(=O)N[C@@H](CCC(=O)O)C(=O)N[C@@H](CCC(N)=O)C(=O)N[C@@H](CCC(=O)O)C(=O)N[C@@H](C)C(=O)N[C@@H](CCC(=O)O)C(=O)N[C@@H](CCC(N)=O)C(=O)N[C@@H](C)C(=O)N[C@@H](C)C(=O)N[C@@H](CC(C)C)C(=O)N[C@@H](CC(N)=O)C(=O)N[C@@H](CCCNC(=N)N)C(=O)N[C@@H](CC(C)C)C(=O)N[C@@H](CC(C)C)C(=O)N[C@@H](CC(C)C)C(=O)N[C@@H](CCC(=O)O)C(=O)N[C@@H](CCC(=O)O)C(=O)N[C@@H](C)C(N)=O [[Glu^13,Nle^18,21]-AAHC(9-41)] (H-DLTFELLRE[Nle]LE[Nle]ARAEQEAEQAALNRLLLEEA-NH2) | inhibits | inhibits
CCCC[C@H](NC(=O)[C@H](CCC(=O)O)NC(=O)[C@H](CC(C)C)NC(=O)[C@H](CCCC)NC(=O)[C@H](CCC(=O)O)NC(=O)[C@H](CCCNC(=N)N)NC(=O)[C@H](CC(C)C)NC(=O)[C@H](CC(C)C)NC(=O)[C@H](Cc1c[nH]cn1)NC(=O)[C@H](Cc1ccccc1)NC(=O)[C@@H](NC(=O)[C@H](CC(C)C)NC(=O)[C@H](CC(=O)O)NC(=O)[C@@H](N)CC(C)C)[C@@H](C)O)C(=O)N[C@@H](C)C(=O)N[C@@H](CCCNC(=N)N)C(=O)N[C@@H](C)C(=O)N[C@@H](CCC(=O)O)C(=O)N[C@@H](CCC(N)=O)C(=O)N[C@@H](CCC(=O)O)C(=O)N[C@@H](C)C(=O)N[C@@H](CCC(=O)O)C(=O)N[C@@H](CCC(N)=O)C(=O)N[C@@H](C)C(=O)N[C@@H](C)C(=O)N[C@@H](CC(C)C)C(=O)N[C@@H](CC(N)=O)C(=O)N[C@@H](CCCNC(=N)N)C(=O)N[C@@H](CC(C)C)C(=O)N[C@@H](CC(C)C)C(=O)N[C@@H](CC(C)C)C(=O)N[C@@H](CCC(=O)O)C(=O)N[C@@H](CCC(=O)O)C(=O)N[C@@H](C)C(N)=O [[Nle^18,21]-AAHC(8-41)] (H-LDLTFHLLRE[Nle]LE[Nle]ARAEQEAEQAALNRLLLEEA-NH2) | inhibits | inhibits
